A word on the inhibition: it is the drop in the measured response relative to a control, in per cent. A high value points to a strong effect.

The structures appear in SMILES notation. Read-outs that look alike come from different tables or passages of the source. A value given as a limit tells only on which side of the number the result lay.

Drawing on US9440982B2 (Eolas Therapeutics, Inc., priority 2012, dated 2016), this text covers IC50 and inhibition for 18 molecules.

For one data set, the target named is T1, OX1 (Homo sapiens, UniProt O43613).
T1 construct: expressed in transfected cells; host or cells: CHO (CHO-OX1, kept under selection antibiotic)
T1 sequence (O43613 1-425): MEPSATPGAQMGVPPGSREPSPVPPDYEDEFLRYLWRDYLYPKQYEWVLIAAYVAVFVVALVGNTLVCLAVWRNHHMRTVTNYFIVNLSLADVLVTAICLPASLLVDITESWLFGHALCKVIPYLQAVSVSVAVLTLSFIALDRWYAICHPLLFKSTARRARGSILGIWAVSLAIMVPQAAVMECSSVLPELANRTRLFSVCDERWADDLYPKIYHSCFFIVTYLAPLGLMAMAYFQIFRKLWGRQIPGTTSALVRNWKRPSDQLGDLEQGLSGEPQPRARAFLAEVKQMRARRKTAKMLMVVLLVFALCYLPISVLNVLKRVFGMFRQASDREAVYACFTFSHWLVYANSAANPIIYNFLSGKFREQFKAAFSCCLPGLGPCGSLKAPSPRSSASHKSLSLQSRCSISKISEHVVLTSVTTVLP
The data set can be described thus: Orexin receptor cell-based functional assay, [Ca2+]i by FLIPR, CHO-OX1 cells. As to conditions: CHO-OX1 cells, EC90 of OXA. The essentials: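 Antagonist mode FLIPR calcium read in CHO-OX1 and CHO-OX2 lines. Test compounds, dosed 0.1 nM-10 μM, preincubated 30 min after 37° C dye loading with 2.5 mM probenecid (calcium4 for 30 min or calcium6 for 2 h).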

The next data set addresses T2, OX2 (Homo sapiens, UniProt O43614).
T2 construct: expressed in transfected cells; host or cells: CHO (CHO-OX2, kept under selection antibiotic)
T2 sequence (O43614 1-444): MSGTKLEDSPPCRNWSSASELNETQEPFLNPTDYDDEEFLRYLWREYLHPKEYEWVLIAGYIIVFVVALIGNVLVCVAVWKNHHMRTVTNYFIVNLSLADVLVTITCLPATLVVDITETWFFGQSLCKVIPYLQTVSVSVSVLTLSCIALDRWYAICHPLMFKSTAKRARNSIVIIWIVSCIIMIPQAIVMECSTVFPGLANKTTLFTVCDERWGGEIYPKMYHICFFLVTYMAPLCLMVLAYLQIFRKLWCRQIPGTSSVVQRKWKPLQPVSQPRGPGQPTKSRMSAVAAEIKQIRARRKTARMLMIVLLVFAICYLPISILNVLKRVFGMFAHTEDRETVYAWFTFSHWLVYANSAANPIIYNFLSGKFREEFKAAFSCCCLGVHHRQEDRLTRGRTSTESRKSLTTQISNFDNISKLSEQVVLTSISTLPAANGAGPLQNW
The data set can be described thus: Orexin receptor cell-based functional assay, [Ca2+]i by FLIPR, CHO-OX2 cells. On the procedure:
Measurement of [Ca^2+]i using a FLIPR: CHO—OX1 or CHO—OX2 cells are seeded into black-walled clear-base 384-well plates (Costar) at a density of 20,000 cells per well in F12-K medium supplemented with 10% FBS and selection antibiotic (500 ug/ml G418 or 15 ug/ml Blasticidin) and cultured overnight. The cells are incubated with equal volume of calcium4 loading buffer (Molecular Devices, Inc.) containing 2.5 mM probenecid at 37° C. for 30 min, followed by putative OX1 or OX2 receptor antagonists (dose-range 0.1 nM-10 μM) for another 30 min.
The cells are incubated with equal volume of calcium6 loading buffer (Molecular Devices, Inc.) containing 2.5 mM probenecid at 37° C. for 2 h, followed by test compounds (dose-range 0.1 nM-10 μM) for another 30 min.

The target of the next data set is T3, CYP3A4 (Homo sapiens, UniProt P08684).
T3 construct: pre-incubated with human liver microsomes and NADPH; from tissue; host or cells: human liver microsomes
T3 sequence (P08684 whole entry): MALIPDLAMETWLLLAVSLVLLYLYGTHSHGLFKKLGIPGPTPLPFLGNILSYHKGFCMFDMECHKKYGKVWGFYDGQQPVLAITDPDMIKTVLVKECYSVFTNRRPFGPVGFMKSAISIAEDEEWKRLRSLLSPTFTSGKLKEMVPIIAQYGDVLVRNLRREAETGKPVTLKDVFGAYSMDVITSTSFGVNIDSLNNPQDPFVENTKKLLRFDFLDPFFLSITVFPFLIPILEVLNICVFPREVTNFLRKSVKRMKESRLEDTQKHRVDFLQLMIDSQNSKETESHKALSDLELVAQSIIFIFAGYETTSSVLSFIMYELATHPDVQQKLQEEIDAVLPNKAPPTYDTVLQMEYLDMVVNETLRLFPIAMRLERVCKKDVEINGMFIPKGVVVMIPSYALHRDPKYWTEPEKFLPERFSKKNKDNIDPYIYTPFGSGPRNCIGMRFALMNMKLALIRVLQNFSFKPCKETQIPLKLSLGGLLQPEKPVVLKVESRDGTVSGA
The data set can be described thus: Cytochrome P450 inhibition assay (midazolam hydroxylation). In kind it is in vitro ADME. The following applies: human, human liver microsomes, probe midazolam (hydroxylation to 1′-hydroxymidazolam), 10 μM test compound, midazolam at approximately its Km. The essentials:
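Percent inhibition of midazolam 1′-hydroxylation by 10 μM compound was measured, midazolam dosed at about Km. Time-dependent inhibition was probed by a 30 min preincubation of compound with human liver microsomes and NADPH ahead of substrate, compared against samples without preincubation.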
In general terms: Liver microsomes are a subcellular fraction often used to study metabolism.

[1] abbreviates: [Ca2+]i by FLIPR, antagonist dose-range 0.1 nM-10 μM, read-out: OX1.
[2] abbreviates: [Ca2+]i by FLIPR, antagonist dose-range 0.1 nM-10 μM, EC90 of OXA, read-out: OX2.

For `Cc1c(F)ccc(-c2ncccn2)c1C(=O)N1CCC[C@@H](C)[C@H]1CNc1ccc(C(F)(F)F)cn1` [Example A386, (3-fluoro-2-methyl-6-(pyrimidin-2-yl)phenyl)((2S,3R)-3-methyl-2-(((5-(trifluoromethyl)pyridin-2-yl)amino)methyl)piperidin-1-yl)methanone], the IC50 is 5 nM on OX1 (setting [1]) and over 5000 nM at OX2 (setting [2]). For `Cc1ccc(C(=O)N2CCC[C@@H](C)[C@H]2CNc2ccc(C(F)(F)F)cn2)c(-c2ncccn2)c1` [Example A305, ((2S,3R)-3-Methyl-2-(((5-(trifluoromethyl)pyridin-2-yl)amino)methyl)piperidin-1-yl)(4-methyl-2-(pyrimidin-2-yl)phenyl)methanone], in that order: 9 nM and over 5000 nM. For the molecule `Cc1ccc(-c2ncccn2)c(C(=O)N2CCC[C@@H](C)[C@H]2CNc2ncc(C(F)(F)F)cn2)c1F` [Example A321], the IC50 at OX1 (setting [1]) was 8 nM; on OX2 (setting [2]) it was over 5000 nM. In the case of `Cc1ccc(-n2cnc(C(F)(F)F)n2)c(C(=O)N2CC3CCCC3C2CNc2nc3cc(Cl)ccc3o2)c1` (stereo not shown) [Example A72, (1-(((5-Chlorobenzo[d]oxazol-2-yl)amino)methyl)hexahydrocyclopenta[c]pyrrol-2(1H)-yl)(5-methyl-2-(3-(trifluoromethyl)-1H-1,2,4-triazol-1-yl)phenyl)methanone], the IC50 was determined as 2400 nM at OX1 (setting [1]) and 3900 nM at OX2 (setting [2]). As for `Cc1cc(-n2nccn2)c(C(=O)N2CCC[C@@H](C)[C@H]2CNc2ncc(C(F)(F)F)cn2)cc1F` [Example A361, (5-fluoro-4-methyl-2-(2H-1,2,3-triazol-2-yl)phenyl)((2S,3R)-3-methyl-2-(((5-(trifluoromethyl)pyrimidin-2-yl)amino)methyl)piperidin-1-yl)methanone], the IC50 was 4 nM at OX1 (setting [1]) and over 5000 nM on OX2 (setting [2]).

Regarding `Cc1cccc(-n2nccn2)c1C(=O)N1CCC[C@@H](C)[C@H]1CNc1ncc(C(F)(F)F)cn1` [Example A264, ((2S,3R)-3-Methyl-2-(((5-(trifluoromethyl)pyrimidin-2-yl)amino)methyl)piperidin-1-yl)(2-methyl-6-(2H-1,2,3-triazol-2-yl)phenyl)methanone], the IC50 on OX1 (setting [1]) was 23 nM; on OX2 (setting [2]), over 5000 nM. In the case of `C[C@@H]1CCCN(C(=O)c2ccc(F)cc2-c2ncccn2)[C@@H]1CNc1ccc(C(F)(F)F)cn1` [Example A234, (4-Fluoro-2-(pyrimidin-2-yl)phenyl)((2S,3R)-3-methyl-2-(((5-(trifluoromethyl)pyridin-2-yl)amino)methyl)piperidin-1-yl)methanone], the IC50 on OX1 (setting [1]) was 11 nM; at OX2 (setting [2]), over 5000 nM. As to `Cc1ccc(-n2cccn2)c(C(=O)N2CCC[C@@H](C)[C@H]2CNc2ccc(C(F)(F)F)cn2)c1` (racemic) [Example 120, rac-cis-(3-Methyl-2-(((5-(trifluoromethyl)pyridin-2-yl)amino)methyl)piperidin-1-yl)(5-methyl-2-(1H-pyrazol-1-yl)phenyl)methanone], the IC50 at OX1 (Table 2, read-out: IC50 Bioactivity OX1) was determined as 3 nM; on OX2 (Table 2, EC90 of OXA, read-out: IC50 Bioactivity OX2), 500 nM.

With `Cc1cc(-n2nccn2)c(C(=O)N2CCC[C@@H](C)[C@H]2CNc2ccc(C(F)(F)F)cn2)cc1F` [Example A360, (5-Fluoro-4-methyl-2-(2H-1,2,3-triazol-2-yl)phenyl)((2S,3R)-3-methyl-2-(((5-(trifluoromethyl)pyridin-2-yl)amino)methyl)piperidin-1-yl)methanone], on OX2 (setting [2]), the IC50 is over 5000 nM. With `C[C@@H]1CCCN(C(=O)c2cc(F)cc(F)c2-n2nccn2)[C@@H]1CNc1ccc(C(F)(F)F)cn1` [Example A328, (3,5-Difluoro-2-(2H-1,2,3-triazol-2-yl)phenyl)((2S,3R)-3-methyl-2-(((5-(trifluoromethyl)pyridin-2-yl)amino)methyl)piperidin-1-yl)methanone], the IC50 at OX2 (setting [2]) was over 5000 nM. As for `C[C@@H]1CCCN(C(=O)c2c(F)cccc2-n2nccn2)[C@@H]1CNc1ccc(Cl)cn1` [Example A261, ((2S,3R)-2-(((5-Chloropyridin-2-yl)amino)methyl)-3-methylpiperidin-1-yl)(2-fluoro-6-(2H-1,2,3-triazol-2-yl)phenyl)methanone], at OX1 (setting [1]), the IC50 amounted to 5 nM. The inhibition at 10 µM against CYP3A4 was 77%. With `Cc1ccc(-c2ccccn2)c(C(=O)N2CCC[C@@H](C)[C@H]2CNc2ccc(C(F)(F)F)cn2)c1` [Example A9, ((2S,3R)-3-Methyl-2-(((5-(trifluoromethyl)pyridin-2-yl)amino)methyl)piperidin-1-yl)(5-methyl-2-(pyridin-2-yl)phenyl)methanone], on OX1 (setting [1]), the IC50 worked out at 9 nM. The inhibition at 10 µM against CYP3A4 is 89%. As to `Cc1ccc(-c2ccccn2)c(C(=O)N2CCC[C@@H](C)[C@H]2CNc2nc3cc(Cl)ccc3o2)n1` [Example A199, ((2S,3R)-2-(((5-Chlorobenzo[d]oxazol-2-yl)amino)methyl)-3-methylpiperidin-1-yl)(6′-methyl-[2,3′-bipyridin]-2′-yl)methanone], at OX1 (setting [1]), the IC50 is 15 nM. Also, the inhibition at 10 µM at CYP3A4 amounted to 62%. Take `Cc1ccc(-c2ncccn2)c(C(=O)N2CCC[C@@H](C)[C@H]2CNc2ccc(C(F)(F)F)nn2)n1` [Example A185, ((2S,3R)-3-Methyl-2-(((6-(trifluoromethyl)pyridazin-3-yl)amino)methyl)piperidin-1-yl)(6-methyl-3-(pyrimidin-2-yl)pyridin-2-yl)methanone]: the IC50 at OX1 (setting [1]) was determined as 46 nM. At CYP3A4, this molecule had an inhibition at 10 µM of 33%.

Turning to `C[C@@H]1CCCN(C(=O)c2cccc(F)c2-c2ncccn2)[C@@H]1CNc1ncc(Cl)cn1` [Example A231, (3-Fluoro-2-(pyrimidin-2-yl)phenyl)((2S,3R)-3-methyl-2-(((5-chloropyrimidin-2-yl)amino)methyl)piperidin-1-yl)methanone], on OX1 (setting [1]), the IC50 stood at 17 nM. Testing at 10 µM against CYP3A4 gave an inhibition of 54%. For the molecule `Cc1ccc(-n2ncc(C)n2)c(C(=O)N2CCC[C@@H](C)[C@H]2CNc2nc3cc(Cl)ccc3o2)c1` [Example A116, ((2S,3R)-2-(((5-Chlorobenzo[d]oxazol-2-yl)amino)methyl)-3-methylpiperidin-1-yl)(5-methyl-2-(4-methyl-2H-1,2,3-triazol-2-yl)phenyl)methanone], the IC50 at OX1 (setting [1]) was found to be 4 nM. Moreover, the inhibition at 10 µM at CYP3A4 stood at 75%. For `Cc1ccc(-n2cccn2)c(C(=O)N2CCC[C@@H](C)[C@H]2CNc2ccc(Cl)cn2)n1` [Example A168, ((2S,3R)-2-(((5-Chloropyridin-2-yl)amino)methyl)-3-methylpiperidin-1-yl)(6-methyl-3-(1H-pyrazol-1-yl)pyridin-2-yl)methanone], in that order: 10 nM and 59%. As to `Cc1ccc(-c2ccccn2)c(C(=O)N2CCC[C@@H](C)[C@H]2CNc2ncc(F)cn2)c1` [Example A179, ((2S,3R)-2-(((5-Fluoropyrimidin-2-yl)amino)methyl)-3-methylpiperidin-1-yl)(5-methyl-2-(pyridin-2-yl)phenyl)methanone], the IC50 on OX1 (setting [1]) worked out at 490 nM. Further, the inhibition at 10 µM against CYP3A4 came out at 67%.
